In ChEMBL document CHEMBL4411296, “Design and development of Isatin-triazole hydrazones as potential inhibitors of microtubule affinity-regulating kinase 4 for the therapeutic management of cell proliferation and metastasis” (Eur J Med Chem, 2019):

Assays:
Assay type in all cases: functional
ACHN = experiment: Growth inhibition of human ACHN cells assessed as cell growth at 10 uM after 48 hrs by sulforhodamine B assay relative to control; settings: read-out: Activity
NCI-H522 = experiment: Growth inhibition of human NCI-H522 cells assessed as cell growth at 10 uM after 48 hrs by sulforhodamine B assay relative to control; settings: NCI-H522, 48 h, read-out: Activity
SK-MEL-5 = experiment: Growth inhibition of human SK-MEL-5 cells assessed as cell growth at 10 uM after 48 hrs by sulforhodamine B assay relative to control; settings: SK-MEL-5, 48 h, read-out: Activity
COLO 205 = experiment: Growth inhibition of human COLO205 cells assessed as cell growth at 10 uM after 48 hrs by sulforhodamine B assay relative to control; settings: COLO 205, 48 h, read-out: Activity
RXF 393 = experiment: Growth inhibition of human RXF393 cells assessed as cell growth at 10 uM after 48 hrs by sulforhodamine B assay relative to control; settings: RXF 393, 48 h, read-out: Activity
NCI-H460 = experiment: Growth inhibition of human NCI-H460 cells assessed as cell growth at 10 uM after 48 hrs by sulforhodamine B assay relative to control; settings: NCI-H460, 48 h, read-out: Activity
MOLT-4 = experiment: Growth inhibition of human MOLT4 cells assessed as cell growth at 10 uM after 48 hrs by sulforhodamine B assay relative to control; settings: MOLT-4, 48 h, read-out: Activity
SR = experiment: Growth inhibition of human SR cells assessed as cell growth at 10 uM after 48 hrs by sulforhodamine B assay relative to control; settings: read-out: Activity
UACC-62 = experiment: Growth inhibition of human UACC62 cells assessed as cell growth at 10 uM after 48 hrs by sulforhodamine B assay relative to control; settings: UACC-62, 48 h, read-out: Activity
SNB-19 = experiment: Growth inhibition of human SNB19 cells assessed as cell growth at 10 uM after 48 hrs by sulforhodamine B assay relative to control; settings: SNB-19, 48 h, read-out: Activity
TK-10 = experiment: Growth inhibition of human TK10 cells assessed as cell growth at 10 uM after 48 hrs by sulforhodamine B assay relative to control; settings: TK-10, 48 h, read-out: Activity
EKVX = experiment: Growth inhibition of human EKVX cells assessed as cell growth at 10 uM after 48 hrs by sulforhodamine B assay relative to control; settings: read-out: Activity
SF-268 = experiment: Growth inhibition of human SF268 cells assessed as cell growth at 10 uM after 48 hrs by sulforhodamine B assay relative to control; settings: SF-268, 48 h, read-out: Activity
786-0 = experiment: Growth inhibition of human 786-0 cells assessed as cell growth at 10 uM after 48 hrs by sulforhodamine B assay relative to control; settings: 786-0, 48 h, read-out: Activity
SK-MEL-28 = experiment: Growth inhibition of human SK-MEL-28 cells assessed as cell growth at 10 uM after 48 hrs by sulforhodamine B assay relative to control; settings: SK-MEL-28, 48 h, read-out: Activity
T47D = experiment: Growth inhibition of human T47D cells assessed as cell growth at 10 uM after 48 hrs by sulforhodamine B assay relative to control; settings: read-out: Activity
BT-549 = experiment: Growth inhibition of human BT549 cells assessed as cell growth at 10 uM after 48 hrs by sulforhodamine B assay relative to control; settings: BT-549, 48 h, read-out: Activity
CAKI-1 = experiment: Growth inhibition of human Caki1 cells assessed as cell growth at 10 uM after 48 hrs by sulforhodamine B assay relative to control; settings: CAKI-1, 48 h, read-out: Activity
NCI-H322M = experiment: Growth inhibition of human NCI-H322M cells assessed as cell growth at 10 uM after 48 hrs by sulforhodamine B assay relative to control; settings: read-out: Activity
NCI-H226 = experiment: Growth inhibition of human NCI-H226 cells assessed as cell growth at 10 uM after 48 hrs by sulforhodamine B assay relative to control; settings: NCI-H226, 48 h, read-out: Activity
HOP-62 = experiment: Growth inhibition of human HOP62 cells assessed as cell growth at 10 uM after 48 hrs by sulforhodamine B assay relative to control; settings: HOP-62, 48 h, read-out: Activity
SK-OV-3 = experiment: Growth inhibition of human SKOV3 cells assessed as cell growth at 10 uM after 48 hrs by sulforhodamine B assay relative to control; settings: SK-OV-3, 48 h, read-out: Activity
Malme-3M = experiment: Growth inhibition of human MALME-3M cells assessed as cell growth at 10 uM after 48 hrs by sulforhodamine B assay relative to control; settings: read-out: Activity
CCRF-CEM = experiment: Growth inhibition of human CCRF-CEM cells assessed as cell growth at 10 uM after 48 hrs by sulforhodamine B assay relative to control; settings: read-out: Activity
NCI/ADR-RES = experiment: Growth inhibition of human NCI/ADR-RES cells assessed as cell growth at 10 uM after 48 hrs by sulforhodamine B assay relative to control; settings: read-out: Activity
Hs-578T = experiment: Growth inhibition of human Hs 578T cells assessed as cell growth at 10 uM after 48 hrs by sulforhodamine B assay relative to control; settings: read-out: Activity
SF-539 = experiment: Growth inhibition of human SF539 cells assessed as cell growth at 10 uM after 48 hrs by sulforhodamine B assay relative to control; settings: SF-539, 48 h, read-out: Activity
OVCAR-3 = experiment: Growth inhibition of human OVCAR3 cells assessed as cell growth at 10 uM after 48 hrs by sulforhodamine B assay relative to control; settings: OVCAR-3, 48 h, read-out: Activity
LOX IMVI = experiment: Growth inhibition of human LOXIMVI cells assessed as cell growth at 10 uM after 48 hrs by sulforhodamine B assay relative to control; settings: read-out: Activity
K562 = experiment: Growth inhibition of human K562 cells assessed as cell growth at 10 uM after 48 hrs by sulforhodamine B assay relative to control; settings: K562, 48 h, read-out: Activity
A549 = experiment: Growth inhibition of human A549/ATCC cells assessed as cell growth at 10 uM after 48 hrs by sulforhodamine B assay relative to control; settings: A549, 48 h, read-out: Activity
OVCAR-5 = experiment: Growth inhibition of human OVCAR5 cells assessed as cell growth at 10 uM after 48 hrs by sulforhodamine B assay relative to control; settings: OVCAR-5, 48 h, read-out: Activity
RPMI-8226 = experiment: Growth inhibition of human RPMI8226 cells assessed as cell growth at 10 uM after 48 hrs by sulforhodamine B assay relative to control; settings: RPMI-8226, 48 h, read-out: Activity
SW-620 = experiment: Growth inhibition of human SW620 cells assessed as cell growth at 10 uM after 48 hrs by sulforhodamine B assay relative to control; settings: SW-620, 48 h, read-out: Activity

Structure (SMILES) | growth at 10 µM (ACHN) | growth at 10 µM (NCI-H522) | growth at 10 µM (SK-MEL-5) | growth at 10 µM (COLO 205) | growth at 10 µM (RXF 393) | growth at 10 µM (NCI-H460) | growth at 10 µM (MOLT-4) | growth at 10 µM (SR) | growth at 10 µM (UACC-62) | growth at 10 µM (SNB-19) | growth at 10 µM (TK-10) | growth at 10 µM (EKVX) | growth at 10 µM (SF-268) | growth at 10 µM (786-0) | growth at 10 µM (SK-MEL-28) | growth at 10 µM (T47D) | growth at 10 µM (BT-549) | growth at 10 µM (CAKI-1) | growth at 10 µM (NCI-H322M) | growth at 10 µM (NCI-H226) | also measured
COc1ccc(Cn2cc(C(=O)N/N=C3/C(=O)Nc4ccc(F)cc43)nn2)cc1 | 110% | 86.1% | 103% | 111% | 110% | 106% | 107% | 102% | 88.6% | 96.8% | 102% | 106% | 103% | 97.6% | 116% | 85.9% | 116% | 97.4% | 102% | 98.5% | growth at 10 µM (HOP-62): 102%; growth at 10 µM (SK-OV-3): 98.9%; growth at 10 µM (Malme-3M): 104%; growth at 10 µM (CCRF-CEM): 95%; growth at 10 µM (NCI/ADR-RES): 96.7%; growth at 10 µM (Hs-578T): 111%; growth at 10 µM (SF-539): 107%; growth at 10 µM (OVCAR-3): 112%; growth at 10 µM (LOX IMVI): 102%; growth at 10 µM (K562): 97.2%; growth at 10 µM (A549): 94.2%; growth at 10 µM (OVCAR-5): 94.7%; growth at 10 µM (RPMI-8226): 99.1%; growth at 10 µM (SW-620): 103%
COc1ccc(Cn2cc(C(=O)N/N=C3/C(=O)Nc4c(C)cccc43)nn2)cc1 | 38.2% | 77.5% | 93.8% | 108% | 81.9% | 73% | 83.5% | 76.6% | 74.1% | 97.5% | 56.1% | 107% | 87.3% | 43.5% | 94.9% | 81% | 103% | 77.1% | 89.6% | 75.1% | growth at 10 µM (HOP-62): 106%; growth at 10 µM (SK-OV-3): 110%; growth at 10 µM (Malme-3M): 40.5%; growth at 10 µM (CCRF-CEM): 82.8%; growth at 10 µM (NCI/ADR-RES): 71.2%; growth at 10 µM (Hs-578T): 84.1%; growth at 10 µM (SF-539): 80.1%; growth at 10 µM (OVCAR-3): 46.7%; growth at 10 µM (LOX IMVI): 75.3%; growth at 10 µM (K562): 63.2%; growth at 10 µM (A549): 85.3%; growth at 10 µM (OVCAR-5): 93.6%; growth at 10 µM (RPMI-8226): 90%; growth at 10 µM (SW-620): 57.5%
COc1ccc(Cn2cc(C(=O)N/N=C3/C(=O)Nc4ccc(C)cc43)nn2)cc1 | 111% | 83.6% | 91.7% | 107% | 117% | 105% | 87.8% | 86% | 94.6% | 98% | 94.6% | 108% | 94.1% | 96.3% | 111% | 104% | 112% | 95.4% | 102% | 93% | growth at 10 µM (HOP-62): 112%; growth at 10 µM (SK-OV-3): 113%; growth at 10 µM (Malme-3M): 106%; growth at 10 µM (CCRF-CEM): 98.1%; growth at 10 µM (NCI/ADR-RES): 100%; growth at 10 µM (Hs-578T): 106%; growth at 10 µM (SF-539): 103%; growth at 10 µM (OVCAR-3): 108%; growth at 10 µM (LOX IMVI): 102%; growth at 10 µM (K562): 87.8%; growth at 10 µM (A549): 97.9%; growth at 10 µM (OVCAR-5): 105%; growth at 10 µM (RPMI-8226): 105%; growth at 10 µM (SW-620): 104%
COc1ccc(Cn2cc(C(=O)N/N=C3/C(=O)Nc4c(F)cccc43)nn2)cc1 | 86.4% | 88.6% | 99.3% | 95% | 86.3% | 105% | 96.5% | 90.3% | 89.3% | 94.2% | 96% | 107% | 100% | 101% | 104% | 66.8% | 105% | 84.2% | 97.5% | 91.9% | growth at 10 µM (HOP-62): 98.4%; growth at 10 µM (SK-OV-3): 102%; growth at 10 µM (Malme-3M): 78.2%; growth at 10 µM (CCRF-CEM): 90.2%; growth at 10 µM (NCI/ADR-RES): 96.9%; growth at 10 µM (Hs-578T): 101%; growth at 10 µM (SF-539): 92.7%; growth at 10 µM (OVCAR-3): 111%; growth at 10 µM (LOX IMVI): 97.8%; growth at 10 µM (K562): 88%; growth at 10 µM (A549): 93.2%; growth at 10 µM (OVCAR-5): 94.8%; growth at 10 µM (RPMI-8226): 89.7%; growth at 10 µM (SW-620): 92.7%
